Data on one compound can be found in article PMC10074041 (RSC Advances, 2023).

This test addresses α-glucosidase. As to the kind of experiment: pNPG hydrolysis, absorbance […] nm. Format: biochemical. Particulars: 1.25 mM pNPG, phosphate pH 6.8, 35 min preincubation at room temperature.

≈ marks a conversion by molar mass, not a printed value.

As to `CC(=O)NC(CC(=O)O)c1ccccc1O` (stereo not shown) [L1, 3-Acetylamino-3(2-hydroxyphenyl) propanoic acid], the “IC50 (μg mL^-1) / In vitro α-glucosidase inhibitory activity” value is 40.96 ± 0.96 µg/mL (≈ 183 µM).
